Data set [1] is described as follows: BET surface area (bulk surface area). Type of data set: physicochemical. The note with it: for bulk surface area after distillation step: final granulate product.
Data set [2] is described as follows: Aggregated / median particle size and size distribution. Type of data set: physicochemical. The settings on record: for Aggregated particle size: additional runs A, B, C (mixing Tee). As to the method: As used herein “median precipitated particle size” “median aggregate particle size” and “particulate size distribution” are determined by Laser Diffraction […] measurements.

Data set [3] can be described thus: Comparative PK Results-2: Day 5 multiple-dose pharmacokinetics. The data set is classed as in vivo, human. The settings on record: for Tmax: read-out: Tmax, median; for half-life: read-out: t1/2, mean (converted). As for the experimental part: Pharmacokinetic samples for the determination of plasma concentrations of the compound of Formula B were collected on Day 5 of each period. PK samples were collected predose (0 hour), 1, 2, 3, 4, 6, 8, 12, and 24-hours postdose.

Data set [4] is described as follows: Primary particle size and morphology by Scanning Electron Microscopy (SEM). The data set is classed as physicochemical. As for the experimental part:
As used herein “primary particle” is the initially formed particles nucleated by combining a solution and anti-solvent. “Primary particle size” refers to the size of a primary particle and is determined by Scanning Electron Microscopy (SEM).
For the Examples which follow, particle size information was acquired by measuring the particulate material produced in the slurry using Focused Beam Reflectance Measurements (FBRM) performed with a Lasentec probe from Mettler Toledo in accordance with manufacturers directions for obtaining such measurements. Measurements were carried out on a sample of the slurry as obtained from the holding tank prior to vacuum distillation. The procedure and equipment can measure particulate materials over a size range of from 1 micron up to 1000 microns. Primary particle size was characterized qualitatively by Scanning Electron Microscopy (SEM). Changes in particle aggregation and aggregate morphology were observed by SEM under various conditions to determine softening point of the precipitated material. For SEM determination of softening point, a sample of the slurry was obtained periodically at each temperature interval as the slurry was heated. The solids in the sample were collected by filtration, dried under vacuum for 1 to 2 hours and the dried sample was examined using conventional SEM. […]

Data set [5] can be described thus: Softening point of precipitate (FBRM during controlled heating). The data set is classed as physicochemical. As for the experimental part: (§1) For the Examples which follow, particle size information was acquired by measuring the particulate material produced in the slurry using Focused Beam Reflectance Measurements (FBRM) performed with a Lasentec probe from Mettler Toledo in accordance with manufacturers directions for obtaining such measurements. Measurements were carried out on a sample of the slurry as obtained from the holding tank prior to vacuum distillation. The procedure and equipment can measure particulate materials over a size range of from 1 micron up to 1000 microns. Primary particle size was characterized qualitatively by Scanning Electron Microscopy (SEM). Changes in particle aggregation and aggregate morphology were observed by SEM under various conditions to determine softening point of the precipitated material. For SEM determination of softening point, a sample of the slurry was obtained periodically at each temperature interval as the slurry was heated. The solids in the sample were collected by filtration, dried under vacuum for 1 to 2 hours and the dried sample was examined using conventional SEM. […] The softening point was inferred from the sampling temperature at which the precipitate began to show loss of nodular particle appearance when examined by SEM in this manner.
Verified by SEM observations, it was shown also that softening point could be determined from FBRM measurements (taken in accordance with manufactures instructions) made on a sample of the slurry undergoing controlled heating. […] FBRM measurements were obtained continuously during the heating cycle and the softening point was determined to be the temperature corresponding to the maxima in the particle count curve over the heating regime.
A precipitate slurry of the compound of Formula B was prepared by setting the flow control valves to supply 3400 ml/min. of n-heptane and 840 ml/min of the MTBE/compound of Formula B solution. […] An aliquot of the slurry thus produced was also evaluated to determine the softening point of the precipitate therein. […] In this manner the softening temperature was determined to be at 36.2 C.

The next data set deals with QT/QTc intervals. The data set is described as follows: QT/QTc study, mean QTcF change from time-matched baseline. The settings on record: for QT interval (mean QTcF change from time-matched baseline): Day 5, relative to placebo.
Data set [6] is described as follows: Bulk density / tapped density. Type of data set: physicochemical. As for the experimental part:
The particulate prepared above was recovered by pressure filtration and vacuum dried under house vacuum (approximately 60 to 70 torr) for 2 hours at 25 C followed by 8 hours of house vacuum at 35 C. The product was finish-dried at 45 C under house vacuum for an additional 16 hours. The dried particulate was evaluated and found to have a primary particle size ranging from less than 1 micron up to about 2 microns. The specific surface area (BET absorption method) was determined to be about 19.11 m2/g. The bulk density of isolated material was determined by weighing a 25 ml (unpacked) sample.

Data set [7] in a line: Chord length by Focused Beam Reflectance Measurements (FBRM). The data set is classed as physicochemical. The note with it: Example I first run, slurry, 0.41 M MTBE solution, 20° C. As for the experimental part: as §1
[8] abbreviates: additional runs A, B, C, precipitate before distillation.
The mark [9] stands for this setting: 800 mg TID, Day 5, healthy subjects, n = 31.
[10] abbreviates: human, plasma, oral, 800 mg TID, Day 5, healthy subjects, n = 31.
The mark [11] stands for this setting: human, plasma, oral, 1200 mg TID, Day 5, healthy subjects, n = 35.
[12] abbreviates: Example I first run, dried particulate.
Where [13] appears, read: Comparative Example I, stirred batch reactor.
[14] abbreviates: Example I second run, isolated material.

The values below come from patent US8420122B2, “Process for the precipitation and isolation of 6,6-dimethyl-3-aza-bicyclo [3.1.0] hexane-amide compounds by controlled precipitation and pharmaceutical formulations containing same” (Merck Sharp & Dohme Corp., priority 2006, dated 2013).

Like-named read-outs stand apart in the source and are kept apart here.

For orientation: AUC means concentration integrated over time. Usually Cmax stands for the peak of the concentration-time curve. Usually Vd/F stands for the apparent distribution volume after extravascular dosing. Usually Tmax stands for the time from dosing to the highest level.

Method for QT/QTc intervals: A study was conducted to evaluate the effect of both a therapeutic (800 mg TID) and a supratherapeutic (1200 mg TID) dose of the compound of Formula B at steay-state on QT/QTc intervals, as measured by mean maximum change from time-matched baseline ECG recordings compared to placebo.
Thirty-six subjects who met entry criteria received one of four study treatments for Days 1 to 5 of each treatment period. This study was conducted in a 4-way crossover manner so that subjects were randomized to receive the 4 study treatments in one of four sequences. Prior to treatment crossover, subjects completed an approximately 1-week outpatient washout period.

For `CC(C)(C)NC(=O)NC(C(=O)N1CC2C([C@H]1C(=O)NC(CC1CCC1)C(=O)C(N)=O)C2(C)C)C(C)(C)C` (stereo partly shown) [Example B4], the “BET Surface area” value in data set [1] (setting [8]) is given as 24.24 m^2/g.
On to `CC(C)(C)NC(=O)NC(C(=O)N1CC2C([C@H]1C(=O)NC(CC1CCC1)C(=O)C(N)=O)C2(C)C)C(C)(C)C` (stereo partly shown) [Example C4], for which the Aggregated particle size in data set [2] was 10-20 microns.
For the molecule `CC(C)(C)NC(=O)NC(C(=O)N1CC2C([C@H]1C(=O)NC(CC1CCC1)C(=O)C(N)=O)C2(C)C)C(C)(C)C` (stereo partly shown) [Example A1], the Aggregated particle size in data set [2] is reported as 10-20 microns. Also, the “BET Surface area” value in data set [1] (setting [8]) turned out to be 30.19 m^2/g.
Consider `CC(C)(C)NC(=O)NC(C(=O)N1CC2C([C@H]1C(=O)NC(CC1CCC1)C(=O)C(N)=O)C2(C)C)C(C)(C)C` (stereo partly shown) [compound of Formula B, 3-[2-(3-tert-Butyl-ureido)-3,3-dimethyl-butyryl]-6,6-dimethyl-3-aza-bicyclo[3.1.0]hexane-2-carboxylic acid (2-carbamoyl-1-cyclobutylmethyl-2-oxo-ethyl)-amide], for which the “CL/F, mean” value turned out to be 158 L/h in data set [3] (setting [9]) and 196 L/h in data set [3] (1200 mg TID, Day 5, healthy subjects, n = 35). Besides, the “Cmin, mean” value in data set [3] (setting [9]) stood at 61.9 ng/mL. For the same molecule, the AUC in data set [3] (human, plasma, oral, 800 mg, 800 mg TID, Day 5, healthy subjects, n = 31, read-out: AUC(τ), mean) was 5320 ng·h/mL; in data set [3] (human, plasma, oral, 800 mg, 800 mg TID, Day 5, read-out: Individual AUC(τ) values, range) it was 3250 to 8900 ng·h/mL; in data set [3] (human, plasma, oral, 1200 mg, 1200 mg TID, Day 5, healthy subjects, n = 35, read-out: AUC(τ), mean), 6500 ng·h/mL; in data set [3] (human, plasma, oral, 1200 mg, 1200 mg TID, Day 5, read-out: Individual AUC(τ) values, range), 2500 to 9400 ng·h/mL. Moreover, the Cmax in data set [3] (human, plasma, oral, 800 mg, 800 mg TID, Day 5, healthy subjects, n = 31, sum of diastereomers, read-out: Cmax, mean) was 1690 ng/mL; in data set [3] (human, plasma, oral, 800 mg, 800 mg TID, Day 5, read-out: Individual Cmax values, range) it was 1150 to 2500 ng/mL; in data set [3] (human, plasma, oral, 1200 mg, 1200 mg TID, Day 5, healthy subjects, n = 35, sum of diastereomers, read-out: Cmax, mean), 1940 ng/mL; in data set [3] (human, plasma, oral, 1200 mg, 1200 mg TID, Day 5, read-out: Individual Cmax values, range), 1100 to 3150 ng/mL. Further, the Vd/F turned out to be 530 L in data set [3] (setting [10]) and 879 L in data set [3] (setting [11]). For the same molecule, the Tmax in data set [3] (setting [10]) and in data set [3] (setting [11]) was 2 h in each case. In addition, the figures for the half-life in data set [3] (setting [10]) and in data set [3] (setting [11]) were 2.31 h and 3.01 h, respectively. Also, the concentration at 5 day in data set [3] (human, plasma, oral, 1200 mg TID, Day 5, healthy subjects, n = 35, read-out: Cmin, mean) was found to be 79.9 ng/mL. In addition, the primary particle size entry in data set [4] (setting [12]) is “less than 1 micron up to about 2 microns”; in data set [4] (Example I second run, after distillation, isolated material), “less than 1 micron”. Moreover, in data set [5] (setting [13]), the “softening point of the wet cake” value was “below 30 °C”. For the same molecule, the softening temperature in data set [5] (Example I first run, slurry aliquot heated 1 C/min) stood at 36.2 C. Further, the softening point in data set [5] (Example I second run, slurry distilled to about 35% of original volume) is 51.6 °C. The “agglomerated average particle size” value in data set [2] (setting [14]) turned out to be 11 microns. The median particulate size in data set [2] (Example II precipitate) was found to be 1.57 microns; in data set [2] (Example III precipitate), 1.46 microns. The “QT interval (mean QTcF change from time-matched baseline)” value in the data set with QT/QTc intervals (800 mg therapeutic dose (LD) TID) and with QT/QTc intervals (1200 mg supratherapeutic dose (HD) TID) was “does not prolong the QT interval” each time. The bulk density in data set [6] (setting [13]) was determined as 0.16 g/mL; in data set [6] (Example I first run, isolated material), 0.3 g/mL; in data set [6] (Example II precipitate), 0.23 g/mL; in data set [6] (Example III precipitate), 0.18 g/mL. In addition, the bulk density average in data set [6] (Example I second run, isolated particulate) amounted to 0.191 g/cm³. In data set [1] (setting [13]), this molecule had a BET Surface area of 1.76 m^2/g. Moreover, in data set [1] (setting [12]), the “specific surface area (BET absorption method)” value is “about 19.11 m2/g”. Further, the “average bulk surface area (BET)” value in data set [1] (setting [14]) was “about 10.3 m^2/g”. Further, the bulk surface area was 8.14 m^2/g in data set [1] (Example II precipitate) and 7.2 m^2/g in data set [1] (Example III precipitate). The “average chord length of agglomerated particulate” value in data set [7] was 15.8 microns.
`CC(C)(C)NC(=O)NC(C(=O)N1CC2C([C@H]1C(=O)NC(CC1CCC1)C(=O)C(N)=O)C2(C)C)C(C)(C)C` (stereo partly shown) [Example C3]: the Aggregated particle size in data set [2] was 10-20 microns.
In the case of `CC(C)(C)NC(=O)NC(C(=O)N1CC2C([C@H]1C(=O)NC(CC1CCC1)C(=O)C(N)=O)C2(C)C)C(C)(C)C` (stereo partly shown) [Example C2], the Aggregated particle size in data set [2] is given as 0.25-18 microns. Besides, in data set [1] (setting [8]), the “BET Surface area” value is 32.41 m^2/g. The “bulk surface area after distillation step” value in data set [1] came out at 6.31 m^2/g.
Turning to `CC(C)(C)NC(=O)NC(C(=O)N1CC2C([C@H]1C(=O)NC(CC1CCC1)C(=O)C(N)=O)C2(C)C)C(C)(C)C` (stereo partly shown) [Example A2], the Aggregated particle size in data set [2] is 10-20 microns. Moreover, in data set [1] (setting [8]), the “BET Surface area” value is recorded as 16.44 m^2/g.
Taken in the same sequence, the figures for `CC(C)(C)NC(=O)NC(C(=O)N1CC2C([C@H]1C(=O)NC(CC1CCC1)C(=O)C(N)=O)C2(C)C)C(C)(C)C` (stereo partly shown) [Example B3] were 10-20 microns and 32.00 m^2/g.
As for `CC(C)(C)NC(=O)NC(C(=O)N1CC2C([C@H]1C(=O)NC(CC1CCC1)C(=O)C(N)=O)C2(C)C)C(C)(C)C` (stereo partly shown) [Example B2], the Aggregated particle size in data set [2] is reported as 10-20 microns. Also, the “BET Surface area” value in data set [1] (setting [8]) amounted to 25.68 m^2/g.
In the case of `CC(C)(C)NC(=O)NC(C(=O)N1CC2C([C@H]1C(=O)NC(CC1CCC1)C(=O)C(N)=O)C2(C)C)C(C)(C)C` (stereo partly shown) [Example A3], the Aggregated particle size in data set [2] was 20-30 microns. For the same molecule, in data set [1] (setting [8]), the “BET Surface area” value is on record as 17.41 m^2/g.
The matching figures for `CC(C)(C)NC(=O)NC(C(=O)N1CC2C([C@H]1C(=O)NC(CC1CCC1)C(=O)C(N)=O)C2(C)C)C(C)(C)C` (stereo partly shown) [Example B1]: 10-20 microns and 32.75 m^2/g.
As to `CC(C)(C)NC(=O)NC(C(=O)N1CC2C([C@H]1C(=O)NC(CC1CCC1)C(=O)C(N)=O)C2(C)C)C(C)(C)C` (stereo partly shown) [Example C1], the Aggregated particle size in data set [2] is 0.25-25.5 microns. In addition, the “BET Surface area” value in data set [1] (setting [8]) came out at 24.85 m^2/g. In data set [1], the “bulk surface area after distillation step” value stood at 6.13 m^2/g.
Regarding `COc1c(N2C[C@@H]3CCCN[C@@H]3C2)c(F)cc2c(=O)c(C(=O)O)cn(C3CC3)c12` [moxifloxacin, reference compound], in the data set on QT/QTc intervals (400 mg QD, positive control), the “QT/QTc interval (mean QTcF change from time-matched baseline)” value was “lengthened QT/QTc interval”.
